In one assay the test system is RER. In words: Autophosphorylation assay of RER in tobacco leaves. It is filed as cell-based, tomato. Particulars: 100 nM, 20 min.
For assay [1], the system named is hypocotyl explants of tomato cultivar Ailsa Craig. In words: Shoot regeneration of tomato hypocotyl explants on shoot inducing medium (SIM). Format: cell-based. On the procedure: FIG. 8—Hypocotyl explants of wild-type (WT) Ailsa Craig and prr mutants cultured in the presence or absence of SIPEP (REF1) at 1 nM in a shoot inducing medium for 21 days.
Relative regeneration frequency was determined by counting the number of regenerated shoots and calculating the average for each group, the average of each group was then divided by the average of the control group.
The number of hypocotyls means explants with varying numbers of regenerated shoots.
To test whether SIPEP (REF1) could rescue shoot regeneration defects in prr mutants were cultured in shoot inducing medium (SIM) in the presence and absence of 1 nM REF1. Shoot regeneration was then scored after 21 days.
Relative regeneration frequency was determined by counting the number of regenerated shoots and calculating the average for each group, the average of each group was then divided by the average of the WT-Mock group.
‘The number of hypocotyls’ means explants with different number of regenerated shoots (0, 1, 2, 3 and ≥4) in each of the genotypes (WT, prr-1, prr-2).
Shoot regeneration was also measured in RER knock out mutants (rer-1 and rer-3) compared to wild type (WT) tomato plants (Ailsa Craig) in the presence and absence of SIPEP (REF1).

Setting [2] is: WT, prr-1 and prr-2, SIM with 1 nM REF1, 21 days.

Entries after “also recorded” stand apart in the source; their conditions may differ.

Chain of RER (as listed by the source): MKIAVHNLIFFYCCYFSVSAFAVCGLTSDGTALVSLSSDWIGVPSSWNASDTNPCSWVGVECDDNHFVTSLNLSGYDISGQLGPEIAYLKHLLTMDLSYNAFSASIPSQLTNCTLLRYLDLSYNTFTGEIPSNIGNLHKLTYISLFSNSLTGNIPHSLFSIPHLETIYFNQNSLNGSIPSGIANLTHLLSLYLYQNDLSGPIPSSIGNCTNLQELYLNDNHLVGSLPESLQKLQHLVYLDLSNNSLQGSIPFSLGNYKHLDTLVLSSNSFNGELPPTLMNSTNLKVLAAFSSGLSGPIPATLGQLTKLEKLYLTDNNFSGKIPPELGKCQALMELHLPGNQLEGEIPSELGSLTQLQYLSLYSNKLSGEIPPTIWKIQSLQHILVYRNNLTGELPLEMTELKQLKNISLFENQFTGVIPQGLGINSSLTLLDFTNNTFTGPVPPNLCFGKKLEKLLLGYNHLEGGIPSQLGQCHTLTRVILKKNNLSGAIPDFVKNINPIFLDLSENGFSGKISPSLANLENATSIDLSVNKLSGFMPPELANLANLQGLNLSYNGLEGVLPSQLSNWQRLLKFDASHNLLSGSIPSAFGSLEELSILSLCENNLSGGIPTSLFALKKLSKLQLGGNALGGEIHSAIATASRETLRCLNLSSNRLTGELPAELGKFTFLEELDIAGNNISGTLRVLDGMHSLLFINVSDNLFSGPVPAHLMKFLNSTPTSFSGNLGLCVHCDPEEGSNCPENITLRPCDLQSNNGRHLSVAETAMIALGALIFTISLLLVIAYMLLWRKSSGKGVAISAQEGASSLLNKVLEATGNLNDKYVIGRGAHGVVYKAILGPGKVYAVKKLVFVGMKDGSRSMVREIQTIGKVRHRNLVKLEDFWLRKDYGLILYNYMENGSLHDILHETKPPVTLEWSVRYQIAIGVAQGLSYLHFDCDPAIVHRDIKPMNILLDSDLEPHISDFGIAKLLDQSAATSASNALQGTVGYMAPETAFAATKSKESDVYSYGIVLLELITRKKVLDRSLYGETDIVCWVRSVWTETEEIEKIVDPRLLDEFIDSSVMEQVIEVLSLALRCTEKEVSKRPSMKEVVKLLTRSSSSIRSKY

Turning to “ATDRRGRPPSRPKVGSGPPPQNN (listed as Solanum lycopersicum) [REF1, 23 amino acid tomato peptide cleaved from precursor PROSIPEP]”, the “auto-phosphorylation of RER” value in the assay on RER is recorded as “triggers auto-phosphorylation”. For the same sequence, in assay [1] (WT Ailsa Craig, SIM with 1 nM REF1 vs without, 21 days), the shoot regeneration entry is “increased; also recorded: highest”. In assay [1] (setting [2]), the number of hypocotyl result is “increased” and the relative regeneration frequency entry was “increased”. Besides, the shoot regeneration result in assay [1] (prr-1 and prr-2 mutants, SIM with 1 nM REF1, 21 days) is reported as “rescued”. In addition, in assay [1] (rer-1 and rer-3 knockouts, presence vs absence of REF1), the “REF1 induced shoot regeneration (shoot regeneration frequency, number of hypocotyl)” value is recorded as “did not lead to any increase; also recorded: defective”.

The values above are taken from patent US20260265771A1, “METHODS OF INCREASING THE REGENERATION EFFICIENCY IN PLANTS” (Institute of Genetics and Developmental Biology Chinese …, priority 2022, published 2026).
